Data as given in article PMC12130866, “Identification of the lydiamycin biosynthetic gene cluster in a plant pathogen guides structural revision and identification of molecular target” (Proceedings of the National Academy of Sciences of the …, 2025).
Values after ≈ are worked out from the molar mass of the structure shown. Numbered stars: 1 amine (or outer) side, 2 acyl side, 3 side chain; on linkers, the order of the positions; unused ones are H or OH. Bridge positions count the residues as written; N and C are the ends. Square brackets hold non-standard residues; d marks the D form. Peptide text beside a SMILES is read from it. * marks the point of attachment. Piz(1,6-dehydro) = O=C(O)[C@@H]1CCC=NN1; X2 = O=C([C@@H]1CCCNN1[*:1])[*:2]; X1 = CCCCC[C@H](CC(=O)O)C(=O)*

Legend:
E. coli PDF [1] = target: T1, E. coli PDF (Escherichia coli, UniProt P0A6K3); assay: Michaelis-Menten kinetics of E. coli PDF with fML-pNA; assay type: biochemical; settings: substrate fML-pNA, 405 nm, room temperature; 1% DMSO
R. fascians D188 WT = settings: 72 h
mycobacteria = settings: cited from earlier work
E. coli PDF [2] = target: T1, E. coli PDF; assay: In vitro PDF inhibition assay, E. coli PDF, fML-pNA colorimetric coupled; assay type: biochemical; settings: in vitro inhibition of E. coli PDF (10 nM); fML-pNA 20 µM; Aeromonas aminopeptidase 0.8 U/mL; lydiamycin A 0-50 µM; HEPES buffer pH 7.5, 1% DMSO; 405 nm, room temperature; sigmoidal fit of initial velocities; n = 3 independent experiments, SD
R. fascians D188-5 [3] = system: R. fascians D188-5
R. fascians D188-5 [4] = assay: In planta competition assay, WT or Δlyd against plasmid-free D188-5; settings: N. benthamiana seedlings, 1:1 mixtures, 1 wk; WT vs Δlyd relative fitness P = 0.0068, two-tailed t test

T1 sequence (P0A6K3 whole entry): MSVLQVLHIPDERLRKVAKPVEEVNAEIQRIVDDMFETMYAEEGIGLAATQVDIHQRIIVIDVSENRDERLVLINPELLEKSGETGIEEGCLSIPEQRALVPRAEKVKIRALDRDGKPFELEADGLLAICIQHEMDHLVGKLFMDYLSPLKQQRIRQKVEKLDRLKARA

| Compound | Km (E. coli PDF [1]) | kcat (E. coli PDF [1]) | MIC (R. fascians D188 WT) | inhibition of mycobacteria (mycobacteria) | IC50 (E. coli PDF [2]) | role of lydiamycin A production in leafy gall disease development (Nicotiana plants; WT versus Δlyd, plant or leafy gall mass at 4 wk) | phytotoxic activity (Nicotiana plants; concluded from plant/gall mass, seedling root length and excised leaf assays, R. fascians WT versus Δlyd) | MIC (R. fascians D188-5 [3]; 72 h) | sensitivity of R. fascians D188-5 relative to R. fascians WT (R. fascians D188-5 [3]; D188-5 more sensitive than WT, from the MICs) | fitness effect of lydiamycin production in competition with D188-5 (R. fascians D188-5 [4]) |
| --- | --- | --- | --- | --- | --- | --- | --- | --- | --- | --- |
| formyl-methionyl-leucyl-p-nitroaniline [fML-pNA] | 27 µM | 7 s⁻¹ |  |  |  |  |  |  |  |  |
| CCCCC[C@H](CC(=O)O)C(=O)N1N=CCC[C@H]1C(=O)N[C@H]1COC(=O)[C@@H]2CCCNN2C(=O)[C@H](C)NC(=O)[C@@H](CC(C)C)NC1=O [lydiamycin A] (X1-[Piz(1,6-dehydro)]S[dL]A[X2]; ester 2-C) |  |  | > 600 µg/mL | previously shown to display antimycobacterial activity | 6 µM | not required for leafy gall disease development | does not have phytotoxic activity | 10 µg/mL (≈ 15.1 µM) | at least 60 times | significant fitness benefit |
